Each molecule was assayed against human NEP (Homo sapiens (Human), UniProt P08473) (assay: In vitro enzyme inhibition assay at human NEP). Details: pKi, recombinant human NEP, fluorogenic peptide substrate, 37° C.
human NEP, sequence (P08473 52-750): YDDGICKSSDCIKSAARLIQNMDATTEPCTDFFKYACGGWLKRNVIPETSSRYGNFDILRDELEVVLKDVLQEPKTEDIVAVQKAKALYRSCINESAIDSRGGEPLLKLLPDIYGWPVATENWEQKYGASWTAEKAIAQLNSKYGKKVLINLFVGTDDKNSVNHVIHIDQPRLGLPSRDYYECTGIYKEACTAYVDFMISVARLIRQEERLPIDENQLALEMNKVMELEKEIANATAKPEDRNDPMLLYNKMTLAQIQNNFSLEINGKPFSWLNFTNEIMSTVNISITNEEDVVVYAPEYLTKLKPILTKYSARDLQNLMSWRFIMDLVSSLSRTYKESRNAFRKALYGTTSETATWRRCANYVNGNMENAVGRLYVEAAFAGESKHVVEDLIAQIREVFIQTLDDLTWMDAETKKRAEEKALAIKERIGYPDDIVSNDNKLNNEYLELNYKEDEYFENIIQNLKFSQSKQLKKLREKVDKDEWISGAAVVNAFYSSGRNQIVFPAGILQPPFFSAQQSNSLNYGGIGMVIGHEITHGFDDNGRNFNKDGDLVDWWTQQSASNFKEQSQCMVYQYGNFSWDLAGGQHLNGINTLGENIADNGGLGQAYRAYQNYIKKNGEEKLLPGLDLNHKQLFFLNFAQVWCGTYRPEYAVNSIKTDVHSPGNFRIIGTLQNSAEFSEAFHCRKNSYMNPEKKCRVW

Compound	Ki
O=C(N[C@H](Cc1ccc(-c2ccccc2)cc1)C[C@@H](COCCO)C(=O)O)c1c[nH]nn1 [Example 11, (2S,4S)-5-Biphenyl-4-yl-2-(2-hydroxyethoxymethyl)-4-[(1H-[1,2,3]triazole-4-carbonyl)amino]pentanoic Acid]	1.26 to 3.16 nM
O=C(N[C@H](Cc1ccc(-c2ccccc2)cc1)C[C@@H](COCCCO)C(=O)O)c1c[nH]nn1 [Example 12, (2S,4S)-5-Biphenyl-4-yl-2-(3-hydroxypropoxymethyl)-4-[(1H-[1,2,3]triazole-4-carbonyl)amino]pentanoic Acid]	1.26 to 3.16 nM
N[C@H](C[C@@H](Cc1ccc(-c2cc(Cl)ccc2F)cc1)NC(=O)c1c[nH]nn1)C(=O)O [Example 13, (2R,4R)-2-Amino-5-(5′-chloro-2′-fluorobiphenyl-4-yl)-4-[(1H-[1,2,3]triazole-4-carbonyl)amino]pentanoic Acid]	≤ 1 nM
CC(C)c1coc(C(=O)N[C@H](Cc2ccc(-c3cc(Cl)ccc3F)cc2)C[C@@H](N)C(=O)O)n1 [Example 15, (2R,4R)-2-Amino-5-(5′-chloro-2′-fluorobiphenyl-4-yl)-4-[(4-isopropyloxazole-2-carbonyl)amino]pentanoic Acid]	≤ 1 nM
CCc1cc(C(=O)N[C@H](Cc2ccc(-c3cc(Cl)ccc3F)cc2)C[C@@H](N)C(=O)O)on1 [Example 16-1, (2R,4R)-2-Amino-5-(5′-chloro-2′-fluorobiphenyl-4-yl)-4-[(3-ethylisoxazole-5-carbonyl)-amino]pentanoic acid]	1.26 to 3.16 nM
CCCc1cc(C(=O)N[C@H](Cc2ccc(-c3cc(Cl)ccc3F)cc2)C[C@@H](N)C(=O)O)no1 [Example 16-2, (2R,4R)-2-Amino-5-(5′-chloro-2′-fluorobiphenyl-4-yl)-4-[(5-propylisoxazole-3-carbonyl)-amino]pentanoic acid]	1.26 to 3.16 nM
Cc1cnc(C(=O)N[C@H](Cc2ccc(-c3cc(Cl)ccc3F)cc2)C[C@@H](N)C(=O)O)o1 [Example 16-3, (2R,4R)-2-Amino-5-(5′-chloro-2′-fluorobiphenyl-4-yl)-4-[(5-methyloxazole-2-carbonyl)-amino]pentanoic acid]	1.26 to 3.16 nM
CCOc1nc(C(=O)N[C@H](Cc2ccc(-c3cc(Cl)ccc3F)cc2)C[C@@H](N)C(=O)O)co1 [Example 16-5, (2R,4R)-2-Amino-5-(5′-chloro-2′-fluorobiphenyl-4-yl)-4-[(2-ethoxyoxazole-4-carbonyl)-amino]pentanoic acid]	3.16 to 10 nM
CCCc1nc(C(=O)N[C@H](Cc2ccc(-c3cc(Cl)ccc3F)cc2)C[C@@H](N)C(=O)O)co1 [Example 16-6, (2R,4R)-2-Amino-5-(5′-chloro-2′-fluorobiphenyl-4-yl)-4-[(2-propyloxazole-4-carbonyl)-amino]pentanoic acid]	3.16 to 10 nM
N[C@H](C[C@@H](Cc1ccc(-c2cc(Cl)ccc2F)cc1)NC(=O)c1ccns1)C(=O)O [Example 16-8, (2R,4R)-2-Amino-5-(5′-chloro-2′-fluorobiphenyl-4-yl)-4-[(isothiazole-5-carbonyl)amino]-pentanoic acid]	3.16 to 10 nM

Second part, the molecule after the results:

Ki	Compound
1.26 to 3.16 nM	N[C@H](C[C@@H](Cc1ccc(-c2cc(Cl)ccc2F)cc1)NC(=O)c1coc(C2CC2)n1)C(=O)O [Example 16-4, (2R,4R)-2-Amino-5-(5′-chloro-2′-fluorobiphenyl-4-yl)-4-[(2-cyclopropyloxazole-4-carbonyl)amino]pentanoic acid]
3.16 to 10 nM	N[C@H](C[C@@H](Cc1ccc(-c2cc(Cl)ccc2F)cc1)NC(=O)c1ccc(Cl)cn1)C(=O)O [Example 16-7, (2R,4R)-2-Amino-5-(5′-chloro-2′-fluorobiphenyl-4-yl)-4-[(5-chloropyridine-2-carbonyl)-amino]pentanoic acid]
3.16 to 10 nM	CCOC(=O)[C@H](N)C[C@@H](Cc1ccc(-c2cc(Cl)ccc2F)cc1)NC(=O)c1cc(O)no1 [Example 16-11, (2R,4R)-2-Amino-5-(5′-chloro-2′-fluorobiphenyl-4-yl)-4-[(3-hydroxyisoxazole-5-carbonyl)amino]pentanoic acid ethyl ester]
3.16 to 10 nM	N[C@@H](C[C@@H](Cc1ccc(-c2cc(Cl)ccc2F)cc1)NC(=O)c1noc(=O)[nH]1)C(=O)O [Example 16-15, (2S,4R)-2-Amino-5-(5′-chloro-2′-fluorobiphenyl-4-yl)-4-[(5-oxo-4,5-dihydro-[1,2,4]oxadiazole-3-carbonyl)amino]pentanoic acid]
1.26 to 3.16 nM	Cc1n[nH]c(C(=O)N[C@H](Cc2ccc(-c3cc(Cl)ccc3F)cc2)C[C@@H](N)C(=O)O)c1F [Example 16-20, (2R,4R)-2-Amino-5-(5′-chloro-2′-fluorobiphenyl-4-yl)-4-[(4-fluoro-5-methyl-2H-pyrazole-3-carbonyl)amino]pentanoic acid]

Same assay, conditions: recombinant human NEP, fluorogenic peptide substrate, 37° C.

Compound	pKi
CCOC[C@H](C[C@@H](Cc1ccc(-c2cccc(Cl)c2)cc1)NC(=O)c1cc(C(C)=O)[nH]n1)C(=O)O [Example 9-2, (2S,4S)-4-[(5-Acetyl-1H-pyrazole-3-carbonyl)-amino]-5-(3′-chlorobiphenyl-4-yl)-2-ethoxymethylpentanoic acid]	≧9.0
CCOC[C@H](C[C@@H](Cc1ccc(-c2cccc(Cl)c2)cc1)NC(=O)c1n[nH]c(C(F)(F)F)n1)C(=O)O [Example 9-3, (2S,4S)-5-(3′-Chlorobiphenyl-4-yl)-2-ethoxymethyl-4-[(5-trifluoromethyl-1H-[1,2,4]triazole-3-carbonyl)amino]pentanoic acid]	≧9.0
CCOC[C@H](C[C@@H](Cc1ccc(-c2cccc(Cl)c2)cc1)NC(=O)c1cc(OC)no1)C(=O)O [Example 9-4, (2S,4S)-5-(3′-Chlorobiphenyl-4-yl)-2-ethoxymethyl-4-[(3-methoxy-isoxazole-5-carbonyl)amino]pentanoic acid]	≧9.0
CCOC[C@H](C[C@@H](Cc1ccc(-c2cccc(Cl)c2)cc1)NC(=O)c1noc(=O)[nH]1)C(=O)O [Example 9-5, (2S,4S)-5-(3′-Chlorobiphenyl-4-yl)-2-ethoxymethyl-4-[(5-oxo-4,5-dihydro-[1,2,4]oxadiazole-3-carbonyl)amino]pentanoic acid]	≧9.0
CCOC[C@H](C[C@@H](Cc1ccc(-c2ccccc2)cc1)NC(=O)c1c[nH]nn1)C(=O)O [Example 10, (2S,4S)-5-Biphenyl-4-yl-2-ethoxymethyl-4-[(1H-[1,2,3]triazole-4-carbonyl)amino]pentanoic Acid]	≧9.0

Continued, values first:

pKi	Compound
≧9.0	CC(=O)c1cc(C(=O)N[C@H](Cc2ccc(-c3cc(Cl)ccc3F)cc2)C[C@@H](N)C(=O)O)[nH]n1 [Example 16-9, (2R,4R)-4-[(5-Acetyl-2H-pyrazole-3-carbonyl)amino]-2-amino-5-(5′-chloro-2′-fluoro-biphenyl-4-yl)pentanoic acid]
≧9.0	N[C@H](C[C@@H](Cc1ccc(-c2cc(Cl)ccc2F)cc1)NC(=O)c1noc(=O)[nH]1)C(=O)O [Example 16-16, (2R,4R)-2-Amino-5-(5′-chloro-2′-fluorobiphenyl-4-yl)-4-[(5-oxo-4,5-dihydro-[1,2,4]oxadiazole-3-carbonyl)amino]pentanoic acid]
≧9.0	CN(C)C(=O)c1cc(C(=O)N[C@H](Cc2ccc(-c3cc(Cl)ccc3F)cc2)C[C@@H](N)C(=O)O)[nH]n1 [Example 16-18, (2R,4R)-2-Amino-5-(5′-chloro-2′-fluorobiphenyl-4-yl)-4-[(5-dimethylcarbamoyl-2H-pyrazole-3-carbonyl)amino]pentanoic acid]
